Reference: PubChem BioAssay (NCI)
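Exposure lasted 48 hours, with cells grown in 96-well plates and compounds tested at five concentrations. Abbreviation: GI50, concentration required for 50% inhibition of growth. The concentration for full growth arrest is given as TGI.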

How the values were obtained:
Assay in all cases: inhibition of tumour cell growth, NCI panel, 48 h
[1] = system: CAKI-1 renal
[2] = system: COLO 205 colon
[3] = system: EKVX NSCLC
[4] = system: HOP-92 NSCLC
[5] = system: K-562 leukemia
[6] = system: NCI-H460 lung
[7] = system: SF-268 CNS
[8] = system: SF-539 CNS
[9] = system: SK-MEL-2 melanoma
[10] = system: TK-10 renal

| Structure (SMILES) | TGI [1] | TGI [2] | TGI [3] | TGI [4] | TGI [5] | TGI [6] | TGI [7] | TGI [8] | TGI [9] | TGI [10] | GI50 [1] | GI50 [2] | GI50 [3] | GI50 [4] | GI50 [5] | GI50 [6] | GI50 [7] | GI50 [8] | GI50 [9] | GI50 [10] |
| --- | --- | --- | --- | --- | --- | --- | --- | --- | --- | --- | --- | --- | --- | --- | --- | --- | --- | --- | --- | --- |
| Cc1c(Cl)cccc1NC(=O)c1cccc([N+](=O)[O-])c1O | > 64.1 µM | 27.3 µM | > 87.6 µM | 7.88 µM | > 82.7 µM | 43.3 µM | > 100 µM | 40.6 µM | 36.9 µM | > 100 µM | – | – | – | – | – | – | – | – | – | – |
| COc1ccc(-c2nn(-c3cccc(Cl)c3)cc2-c2nc(N)[nH]c(=O)c2C#N)cc1 | 15.3 µM | 20.9 µM | 35.4 µM | 12.2 µM | > 100 µM | 27.7 µM | 35.4 µM | 32.2 µM | 15.8 µM | 53.9 µM | 2.52 µM | 7.65 µM | 3.29 µM | 1.65 µM | 3.45 µM | 6 µM | 5.86 µM | 6.59 µM | 3.94 µM | 13.5 µM |
| CNC(C)[C@H]1CCC2C3CC=C4C(=O)[C@@H](NC(=O)C=C(C)C)CC[C@]4(C)C3CC[C@@]21C (stereo not given in full) | 5.53 µM | 2.99 µM | 11.2 µM | 10.3 µM | 2.19 µM | 2.76 µM | 3.66 µM | 2.64 µM | 6.9 µM | 10.4 µM | 1.68 µM | 1.51 µM | 1.14 µM | 0.977 µM | 0.478 µM | 1.26 µM | 1.6 µM | 1.3 µM | 2.74 µM | 2.89 µM |
| NCCCOc1cc(Cl)ccc1NC(=O)c1cc2ccccc2cc1OCCCN | 3.64 µM | 2.79 µM | 3.58 µM | 2.85 µM | 4.12 µM | 3.21 µM | 2.63 µM | 2.95 µM | 3.19 µM | 3.38 µM | 1.6 µM | 1.31 µM | 1.69 µM | 1.32 µM | 1.72 µM | 1.68 µM | 1.29 µM | 1.5 µM | 1.58 µM | 1.73 µM |
| COc1cc(-c2nnc3n2NC=C(C(=O)O)S3)cc(OC)c1OC | > 100 µM | > 70.3 µM | > 100 µM | > 100 µM | > 63 µM | > 100 µM | > 100 µM | > 61.4 µM | > 100 µM | > 100 µM | – | – | – | – | – | – | – | – | – | – |
| C=C(C)[C@@H]1CC[C@]2(C)[C@H](CC[C@@H]3[C@@H]([C@@](C)(O)CCC=C(C)C)CC[C@]32C)[C@@]1(C)CCC(=O)O | 27.7 µM | 35.6 µM | 59.6 µM | 27.2 µM | 90.5 µM | > 100 µM | 32.8 µM | 29.9 µM | 39 µM | > 100 µM | 13.9 µM | 17.7 µM | 24.2 µM | 12.7 µM | 18.5 µM | 31.9 µM | 16.1 µM | 16 µM | 17.6 µM | 40.6 µM |
| C[P+](C)(C)c1ccccc1 | > 100 µM | > 100 µM | > 100 µM | > 100 µM | > 100 µM | > 100 µM | > 100 µM | > 100 µM | > 100 µM | > 100 µM | – | – | – | – | – | – | – | – | – | – |
| Cc1ccc2occ/c(=N\Nc3ccccc3)c2c1 | > 100 µM | > 100 µM | 98 µM | 97.4 µM | > 100 µM | > 100 µM | > 100 µM | > 100 µM | > 100 µM | > 100 µM | – | – | – | – | – | – | – | – | – | – |
| C=C1C(O)C2C(=C(C)C13CC3)C(=O)C(C)(C)C2OC (stereo not given) | > 100 µM | > 100 µM | > 100 µM | > 100 µM | > 100 µM | > 100 µM | > 100 µM | > 100 µM | > 100 µM | > 100 µM | 71.8 µM | 95.6 µM | > 100 µM | 24.8 µM | 42.9 µM | > 100 µM | > 100 µM | > 100 µM | > 100 µM | > 100 µM |
| C1COCCSC2=C(SCCO1)SC(=C1SC3=C(SCCOCCOCCS3)S1)S2 | > 100 µM | > 100 µM | > 100 µM | > 100 µM | > 100 µM | > 100 µM | > 100 µM | > 100 µM | > 100 µM | > 100 µM | – | – | – | – | – | – | – | – | – | – |
| CCOC(=O)C1=C(N)Oc2c(sc3c(C)cccc23)C1c1ccc(F)cc1 (stereo not given) | 14.9 µM | 5.77 µM | 19.7 µM | 13.4 µM | > 42.7 µM | 11 µM | 19.4 µM | 3.48 µM | 24.8 µM | 29.5 µM | 0.413 µM | 0.633 µM | 0.88 µM | 2.13 µM | 0.375 µM | 0.415 µM | 1.61 µM | 0.36 µM | 5.39 µM | 13.2 µM |
| CCOC(=O)c1sc(NC(=O)COc2cccc(/C=C3\CCc4cc(OC)ccc4C3=O)c2)nc1C | > 100 µM | 43.4 µM | > 100 µM | 36.9 µM | 6.26 µM | 13.8 µM | 12.3 µM | 7.58 µM | > 100 µM | > 100 µM | 7.16 µM | 8.49 µM | 74 µM | 16.9 µM | 1.94 µM | 3.19 µM | 3.21 µM | 2.1 µM | 5.38 µM | 21.7 µM |
| CC(Cl)CN1c2ccccc2Sc2ccc(Cl)cc21 (stereo not given) | > 10 µM | > 10 µM | > 10 µM | > 10 µM | > 10 µM | > 10 µM | > 10 µM | > 10 µM | > 10 µM | > 10 µM | – | – | – | – | – | – | – | – | – | – |
